Like-named read-outs stand apart in the source and are kept apart here.
Columns and labels:
[1] = test system: MCF-7 organoids; assay: HSLCI mass tracking of bioprinted organoids in drug screening; assay type: cell-based; conditions: for Organoid Behavior (%) Stable / Organoid Behavior (%) Gained Mass / Organoid Behavior (%) Lost Mass: MCF-7 organoids; for Organoid Behavior (%) Stable: mass change <10%; for Organoid Behavior (%) Gained Mass: mass increase >10%; for Organoid Behavior (%) Lost Mass: mass loss >10%
Excerpt: Cells were bioprinted using a CELLINK BioX with a Temperature-Controlled Printhead. Gcode files were written to print the desired single-layer geometry. We wrote standardized blocks of Gcode encode the print path for the repeated geometries. MATLAB (MathWorks, Inc.) was used to integrate these standardized blocks into full Gcode files with the defined coordinates for each well. We used 8-well plates when printing the larger constructs as the depth of the well in a standard 24-well plate prohibited the use of 0.5″ length needles. Large rings were necessary to deposit a sufficient number of cells for RNA-Seq and IHC. Four rings with a diameter of 14.5 mm were printed for RNA sequencing (approximately 200,000 cells total), while four sets of concentric 14.5 mm, 12.5 mm, and 10.5 mm diameter rings were used for IHC analysis (approximately 500,000 cells total). We printed mini-squares with side length 3.9 mm for drug screening and HSLCI imaging. The mini-squares were inscribed within the circular well with sides parallel to the sides of the well plate. The open center of the constructs facilitates automatic manipulation with fluid handling equipment while the sides of the square are positioned to maximize the number of organoids imaged by HSLCI. The bioprinting process utilized the same material deposited for manually seeded organoids. A single cell suspension, aggregates or clusters in a 3:4 mixture of MammoCult™ and Matrigel® was prepared on ice. After vortexing briefly to homogenize, the mixture was transferred into a 3 mL syringe by removing the plunger and capping the opposite end. Once the plunger was replaced, the syringe was inverted, and bubbles were forced out of the tip. The material was then transferred to a room temperature 3 mL bioprinter cartridge (CELLINK) by connecting the syringe and cartridge with a double-sided female Luer lock adapter (CELLINK). Any air bubbles in the syringe were removed and the loaded cartridge was incubated in a rotating incubator (Enviro-Genie, Scientific Industries) for 30 minutes at the print temperature.
During the incubation period, the printer was sterilized with the built-in UV irradiation function and the printhead was set to the print temperature. […] The well masks were autoclaved prior to use. The masks were inserted into the well plate and pressed in contact with the glass surface. Rubber bands were used to hold the masks in place and ensure conformal contact was maintained throughout the plasma treatment. The well plates were treated with oxygen plasma in a PE-25 (Plasma Etch) for 30-90 seconds, 15 minutes prior to bioprinting. After plasma treatment, the well plate was placed in the bioprinter and Automatic Bed Levelling (ABL) was performed.
Once the incubation period ended, we attached a 0.5″ 25-gauge needle and loaded the cartridge into the pre-cooled printhead. We primed the needle by extruding a small volume of material at 15 kPa prior to calibrating the printer. Just before printing, we cleared the needle of the gelled material by extruding a small volume using 40 kPa prior to starting the print. To create constructs of the appropriate thicknesses, prints in 8-well plates were extruded at 15 kPa while prints in 96-well plates were extruded at 12-15 kPa. […] After printing, the constructs were incubated at 37° C. for at least 30 minutes to solidify the matrix and 100 μL of MammoCult™ medium was then added.
The HSLCI platform was installed inside a standard cell culture incubator. For all growth kinetics studies and drug screening, organoids were imaged in 96-well glass-bottom plates (Cellvis P96-1.5H-N) using a 40× objective (Nikon, NA 0.75). Organoids were seeded as single-cell suspensions in a 3:4 mixture of MammoCult™ and Matrigel® as described above and were grown at 37° C. and 5% CO2 in MammoCult™ medium supplemented with 1% antibiotic-antimycotic (Gibco 15240-062).

[2] = test system: BT-474 organoids; assay: Endpoint ATP-release assay (CellTiter-Glo) of organoid viability; assay type: cell-based; conditions: BT-474; for viability at 0.1 µM / viability at 1 µM / viability at 10 µM / viability at 50 µM: Homo sapiens
Method: All drug treatments of 3D organoids were performed in serum-free conditions in MammoCult™ medium supplemented with 1% antibiotic-antimycotic (Gibco 15240-062). A detailed protocol for the drug screening has been published previously in Phan, N. et al. supra; and Nguyen, H. T. L. & Soragni, supra. Briefly, the culture medium was fully removed three days after seeding and replaced with 100 μL of MammoCult™ medium containing the indicated treatments using an automated pipetting system (EpMotion® 96). After treatment, we transferred the organoids to the HSLCI for imaging. […] The media was aspirated from each well and replaced with 50 μL of 5 mg/mL Dispase (Thermo-Fisher) solution to digest the Matrigel. After a 25-minute incubation at 37° C., the plate was placed on an orbital shaker for 5 minutes at 80 RPM. We then added 30 μL of CellTiter-Glo® reagent (Promega), sealed the plate with film, covered the plate with foil to protect from light, shook the plate for 5 minutes at 80 RPM, and incubated at room temperature for an additional 20 minutes. We used a SpectraMax iD3 plate reader to measure luminescence. The program parameters for luminescence readings were 5 minutes of shaking prior to reading, reading all wavelengths, and integrating signal over 500 ms. Organoid viability within each well was calculated by dividing the luminescent signal from each well by the mean luminescence of the control (1% DMSO) wells. Two-tailed independent t-tests were performed to assess the statistical significance of the differences in organoid mass and cell viability. P-values less than 0.05 were deemed significant.

[3] = listed as printed as 48 hours, relative to 1% DMSO, read-out: Comparisons of cell viability measures by ATP detection assay, Mean mass ± SD
[4] = 72 h of treatment, luminescence relative to 1% DMSO control, read-out: Organoid viability by endpoint ATP assay, Viability ± SD

CS(=O)(=O)CCNCc1ccc(-c2ccc3ncnc(Nc4ccc(OCc5cccc(F)c5)c(Cl)c4)c3c2)o1 [Lapatinib, lapatinib]
Mean mass of MCF-7 organoids, Mean mass ± SD ([1]; 0.1 μM, 6 hours of treatment): 2.00 ± 1.43 ng | Mean mass of MCF-7 organoids, Mean mass ± SD ([1]; 0.1 μM, 48 hours of treatment): 2.76 ± 2.35 ng | Mean mass of MCF-7 organoids, Mean mass ± SD ([1]; 1 μM, 6 hours of treatment): 2.20 ± 1.33 ng | Mean mass of MCF-7 organoids, Mean mass ± SD ([1]; 1 μM, 48 hours of treatment): 2.71 ± 2.09 ng | Mean mass of MCF-7 organoids, Mean mass ± SD ([1]; 10 μM, 6 hours of treatment): 2.30 ± 1.48 ng | Mean mass of MCF-7 organoids, Mean mass ± SD ([1]; 10 μM, 48 hours of treatment): 2.46 ± 1.90 ng | Mean mass of MCF-7 organoids, Mean mass ± SD ([1]; 50 μM, 6 hours of treatment): 1.71 ± 0.84 ng | Mean mass of MCF-7 organoids, Mean mass ± SD ([1]; 50 μM, 48 hours of treatment): 1.32 ± 1.03 ng | Mean mass of MCF-7 organoids, Mean mass ± SD ([1]; 50 μM, 48 hours of treatment, listed as lapatinib): 1.32 ± 1.06 ng | Organoid Behavior (%) Stable ([1]; 0.1 μM, 12 h): 73.5% | Organoid Behavior (%) Gained Mass ([1]; 0.1 μM, 12 h): 17.6% | Organoid Behavior (%) Lost Mass ([1]; 0.1 μM, 12 h): 8.8% | Organoid Behavior (%) Stable ([1]; 0.1 μM, 24 h): 56.3% | Organoid Behavior (%) Gained Mass ([1]; 0.1 μM, 24 h): 28.1% | Organoid Behavior (%) Lost Mass ([1]; 0.1 μM, 24 h): 15.6% | Organoid Behavior (%) Stable ([1]; 0.1 μM, 48 h): 34.4% | Organoid Behavior (%) Gained Mass ([1]; 0.1 μM, 48 h): 46.9% | Organoid Behavior (%) Lost Mass ([1]; 0.1 μM, 48 h): 18.8% | Organoid Behavior (%) Stable ([1]; 1 μM, 12 h): 88.2% | Organoid Behavior (%) Gained Mass ([1]; 1 μM, 12 h): 8.8% | Organoid Behavior (%) Lost Mass ([1]; 1 μM, 12 h): 2.9% | Organoid Behavior (%) Stable ([1]; 1 μM, 24 h): 45.2% | Organoid Behavior (%) Gained Mass ([1]; 1 μM, 24 h): 45.2% | Organoid Behavior (%) Lost Mass ([1]; 1 μM, 24 h): 9.7% | Organoid Behavior (%) Stable ([1]; 1 μM, 48 h): 26.3% | Organoid Behavior (%) Gained Mass ([1]; 1 μM, 48 h): 55.3% | Organoid Behavior (%) Lost Mass ([1]; 1 μM, 48 h): 18.4% | Organoid Behavior (%) Stable ([1]; 10 μM, 12 h): 84.1% | Organoid Behavior (%) Gained Mass ([1]; 10 μM, 12 h): 6.8% | Organoid Behavior (%) Lost Mass ([1]; 10 μM, 12 h): 9.1% | Organoid Behavior (%) Stable ([1]; 10 μM, 24 h): 56.5% | Organoid Behavior (%) Gained Mass ([1]; 10 μM, 24 h): 26.1% | Organoid Behavior (%) Lost Mass ([1]; 10 μM, 24 h): 17.4% | Organoid Behavior (%) Stable ([1]; 10 μM, 48 h): 32.4% | Organoid Behavior (%) Gained Mass ([1]; 10 μM, 48 h): 32.4% | Organoid Behavior (%) Stable ([1]; 50 μM, 12 h): 58.6% | Organoid Behavior (%) Gained Mass ([1]; 50 μM, 12 h): 6.9% | Organoid Behavior (%) Stable ([1]; 50 μM, 24 h): 39.3% | Organoid Behavior (%) Gained Mass ([1]; 50 μM, 24 h): 14.3% | Organoid Behavior (%) Lost Mass ([1]; 50 μM, 24 h): 46.4% | Organoid Behavior (%) Stable ([1]; 50 μM, 48 h): 43.5% | Organoid Behavior (%) Gained Mass ([1]; 50 μM, 48 h): 4.3% | Organoid Behavior (%) Lost Mass ([1]; 50 μM, 48 h): 52.2% | Organoid viability by endpoint ATP assay, Viability ± SD ([2]; 0.1 μM, 72 h of treatment, luminescence relative to 1% DMSO control): significant reductions in viability | viability at 0.1 µM ([2]; listed as printed as 48 hours, 0.1 μM, relative to 1% DMSO, read-out: Comparisons of cell viability measures by ATP detection assay, Mean mass ± SD): 70 ± 18% | viability at 1 µM [2, 3]: 43 ± 9% | viability at 10 µM [2, 3]: 32 ± 4% | viability at 50 µM [2, 3]: 9 ± 7% | viability at 0.1 µM ([2]; 0.1 μM, 72 h of treatment, luminescence relative to 1% DMSO control, read-out: Organoid viability by endpoint ATP assay, Viability ± SD): 70 ± 18% | viability at 1 µM [2, 4]: 43 ± 9% | viability at 10 µM [2, 4]: 32 ± 4% | viability at 50 µM [2, 4]: 9 ± 7%

— patent US20240069010A1, “TISSUE ORGANOID BIOPRINTING AND HIGH-THROUGHPUT SCREENING METHODOLOGY” (priority 2020, published 2024)
